Test results taken from patent publication US5744121A (priority 1996, dated 1998).
Where two headings read alike, the source gives them in different places.

Legend:
[1] = system: other receptors; conditions: cited from earlier work
[2] = target: 5-HT1A receptor; conditions: cited from earlier work
[3] = system: serotonin (5-HT1A) receptor; assay: Selectivity for serotonin 5-HT1A receptor; assay type: binding
[4] = system: 5-HT1A receptor; assay: Blocking studies: regional brain uptake ratios in rats; assay type: in vivo; conditions: 30 min post iv injection of tracer
Method: In order to further characterize the in vivo brain uptake of 1a in rats, blocking studies were carried out to determine changes of the ratios of regional brain uptake. […] Ratios for each region were calculated based on the % dose/gram of each region divided by the same in CB. […] (HP: hippocampus; CB: cerebellum; HY: hypothalamus; CX: cortex; ST: striatum).

[5] = target: T1, 5-HT1A receptor (rat hippocampal homogenates) (Rattus norvegicus, UniProt P19327); assay: Inhibition of [^125 I]-p-MPP binding to rat hippocampal homogenates; conditions: ligand [^125 I]-p-MPP, rat hippocampal homogenates; read-out: Ki
T1 construct: in rat hippocampal membrane preparations; from tissue; host or cells: rat hippocampus (membrane preparations / tissue homogenates)
T1 sequence (P19327 1-422): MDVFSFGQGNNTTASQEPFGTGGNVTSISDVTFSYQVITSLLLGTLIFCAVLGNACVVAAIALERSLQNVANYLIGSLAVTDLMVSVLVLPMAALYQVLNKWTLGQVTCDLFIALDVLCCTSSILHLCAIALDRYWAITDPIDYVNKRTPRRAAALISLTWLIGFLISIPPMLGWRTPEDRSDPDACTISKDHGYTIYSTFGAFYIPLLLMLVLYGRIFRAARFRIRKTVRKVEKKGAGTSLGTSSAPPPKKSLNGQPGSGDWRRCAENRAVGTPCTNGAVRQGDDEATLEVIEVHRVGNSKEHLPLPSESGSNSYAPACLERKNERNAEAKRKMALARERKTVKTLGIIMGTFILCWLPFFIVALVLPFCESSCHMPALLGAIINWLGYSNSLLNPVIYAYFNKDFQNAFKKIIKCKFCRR

[6] = Biodistribution in rats after iv injection; assay type: in vivo, Male Sprague-Dawley rats; conditions: average of 3 rats ± SD
Method: Male Sprague-Dawley rats (225-300 g), allowed free access to food and water, were used for an in vivo biodistribution study. While the rats were under ether anesthesia, 0.2 mL of a saline solution containing [^123 I]1a and 1b (8-10 μCi) was injected directly into the femoral vein, and rats were sacrificed at various time points postinjection by cardiac excision under ether anesthesia. The organs of interest were removed and weighed and the radioactivity was counted with a Packard […] automatic counter (Model 5000). The percentage dose per organ was calculated by a comparison of the tissue counts to suitably diluted aliquots of the injected material.

[7] = system: 5-HT1A receptor; assay: Regional brain distribution in rats after iv injection; assay type: in vivo, Male Sprague-Dawley rats; conditions: ^123 I labeled, iv
Method: (§1) While the rats were under ether anesthesia, 0.2 mL of a saline solution containing [^123 I]1a and 1b (8-10 μCi) was injected directly into the femoral vein, and rats were sacrificed at various time points postinjection by cardiac excision under ether anesthesia. The organs of interest were removed and weighed and the radioactivity was counted with a Packard garnma automatic counter (Model 5000). The percentage dose per organ was calculated by a comparison of the tissue counts to suitably diluted aliquots of the injected material. Total activities of blood and muscle were calculated under the assumption that they were 7% and 40% of the total body weight, respectively.
(§2) By dissecting, weighing and counting samples from different brain regions (cortex, striatum, hippocampus, hypothalamus and cerebellum), the percentage dose/gram of the sample was calculated by comparing the sample counts with the count of the diluted initial dose.

[8] = as above; assay type: in vivo, Male Sprague-Dawley rats; conditions: rat; for tissue uptake at 0.5 h: 30 min; for tissue uptake at 2 h: 120 min
Method: as §1, §2

[9] = target: T1, 5-HT1A receptor (rat hippocampal homogenates); assay: Inhibition of [^125 I]-8-OH-PIPAT binding to rat hippocampal homogenates; conditions: ligand [^125 I]-8-OH-PIPAT
Description: The 5-HT1A binding affinity of p-, m-, o- MPPI, p-fluoro- and p-nitro-MPP derivatives (1a-f) in rat hippocampal membrane preparations with [^123 ]

[10] = system: α1 receptor; conditions: relative to 5-HT1A; cited from earlier work
[11] = Stability of the radiolabelled product on storage; assay type: physicochemical; conditions: -20° C., at least four weeks, HPLC; 40320 min
[12] = Partition coefficient (octanol/phosphate); assay type: physicochemical; conditions: octanol/0.1M phosphate, pH 7.0; read-out: P.C (partition coefficient) (converted)
Description: P.C = 1800 (octanol/0.1M phosphate, pH 7.0)

[13] = cerebellum, iv, rats (Table III), read-out: Regional distribution, cerebellum
[14] = cortex, iv, rats (Table III), read-out: Regional distribution, cortex
[15] = hippocampus, iv, rats (Table III), read-out: Regional distribution, hippocampus
[16] = hypothalamus, iv, rats (Table III), read-out: Regional distribution, hypothalamus
[17] = striatum, iv, rats (Table III), read-out: Regional distribution, striatum

## COc1ccccc1N1CCN(CCCCNC(=O)C23CC4CC(CC(C4)C2)C3)CC1 [4-[4-(1-adamantanecarboxamido)-butyl] 1-(2-methoxyphenyl)piperazine]
[1]
  binding affinity to other receptors: devoid of binding affinity to other receptors
[2]; 5-HT1A receptor
  Kd: 0.4 nM

## COc1ccccc1N1CCN(CCN(C(=O)c2ccc(I)cc2)c2ccccn2)CC1 [Compound 1a, 4-(2'-methoxy)phenyl-1-[2'-(N-2"-pyridinyl)-p-iodobenzamido]ethyl piperazine]
[3]
  selectivity/affinity for serotonin 5-HT1A receptor: unique high affinity and selectivity toward serotonin 5-HT1A sites
[4]; (±)8-OH-DPAT pretreated (2 mg/kg, iv, 5 min prior)
  HP/CB ratio: 1.21
[4]; WAY 100635 pretreated (1 mg/kg, iv, 20 min prior)
  HP/CB ratio: 1.07
[4]; control (no pretreatment)
  HP/CB ratio: 3.69
[5]
  Ki: 0.96 ± 0.1 nM
[6]; 2 min
  Brain uptake: 1.22 % dose/organ
[7]
  5-HT1A related specific uptake (regional distribution pattern in rat brain): displayed the 5-HT1A related specific uptake
[8]; hippocampus, 60 minutes after iv injection, ^123 I labeled, read-out: Uptake in hippocampal tissue
  tissue uptake at 1 h: 0.13 %ID/g
[9]
  Ki: 2.6 ± 0.7 nM

## COc1ccccc1N1CCN(CCCCN2C(=O)c3ccccc3C2=O)CC1 [NAN-190, 1-(2-methoxyphenyl)-4-[4-(2-phthalimido)butyl]piperazine]
[2]; 5-HT1A affinity
  Ki: 0.6 nM
[10]
  potency for the α1 receptor: equal potency for the α1 receptor

## COc1ccccc1N1CCN(CCN(C(=O)c2ccc([123I])cc2)c2ccccn2)CC1 [[^123 I] 1a]
[11]
  purity on storage: > 95%
[12]
  logD: 3.26
[6]; 2 min
  Blood uptake: 4.49 ± 0.55 % dose/organ
  Brain uptake: 1.22 ± 0.22 % dose/organ
  Heart uptake: 0.91 ± 0.09 % dose/organ
  Kidney uptake: 5.20 ± 0.44 % dose/organ
  Liver uptake: 14.2 ± 3.1 % dose/organ
  Lung uptake: 2.39 ± 0.10 % dose/organ
  Muscle uptake: 11.29 ± 4.15 % dose/organ
  Skin uptake: 8.34 ± 1.22 % dose/organ
  Spleen uptake: 0.37 ± 0.13 % dose/organ
  Thyroid uptake: 0.09 ± 0.02 % dose/organ
[6]; 30 min
  Blood uptake: 4.04 ± 1.24 % dose/organ
  Brain uptake: 0.22 ± 0.01 % dose/organ
  Heart uptake: 0.18 ± 0.04 % dose/organ
  Kidney uptake: 1.74 ± 0.49 % dose/organ
  Liver uptake: 8.71 ± 0.20 % dose/organ
  Lung uptake: 0.48 ± 0.05 % dose/organ
  Muscle uptake: 7.58 ± 2.48 % dose/organ
  Skin uptake: 8.24 ± 1.60 % dose/organ
  Spleen uptake: 0.14 ± 0.02 % dose/organ
  Thyroid uptake: 0.03 ± 0.02 % dose/organ
[6]; 60 min
  Blood uptake: 2.73 ± 0.09 % dose/organ
  Brain uptake: 0.12 ± 0.005 % dose/organ
  Heart uptake: 0.13 ± 0.02 % dose/organ
  Kidney uptake: 1.06 ± 0.23 % dose/organ
  Liver uptake: 7.53 ± 0.99 % dose/organ
  Lung uptake: 0.31 ± 0.04 % dose/organ
  Muscle uptake: 4.34 ± 0.91 % dose/organ
  Skin uptake: 4.51 ± 1.00 % dose/organ
  Spleen uptake: 0.11 ± 0.04 % dose/organ
  Thyroid uptake: 0.02 ± 0.007 % dose/organ
[6]; 120 min
  Blood uptake: 2.05 ± 0.30 % dose/organ
  Brain uptake: 0.05 ± 0.002 % dose/organ
  Heart uptake: 0.07 ± 0.003 % dose/organ
  Kidney uptake: 0.62 ± 0.11 % dose/organ
  Liver uptake: 5.16 ± 1.01 % dose/organ
  Lung uptake: 0.18 ± 0.002 % dose/organ
  Muscle uptake: 2.14 ± 0.15 % dose/organ
  Skin uptake: 5.82 ± 4.37 % dose/organ
  Spleen uptake: 0.07 ± 0.009 % dose/organ
  Thyroid uptake: 0.02 ± 0.01 % dose/organ
[8]; [13]
  tissue uptake at 2 min: 0.64 ± 0.08 %ID/g
  tissue uptake at 0.5 h: 0.07 ± 0.006 %ID/g
  tissue uptake at 2 h: 0.024 ± 0.0002 %ID/g
[8]; cerebellum, 60 min, iv, rats (Table III), read-out: Regional distribution, cerebellum
  tissue uptake at 1 h: 0.04 ± 0.001 %ID/g
[8]; [14]
  tissue uptake at 2 min: 0.91 ± 0.06 %ID/g
  tissue uptake at 0.5 h: 0.11 ± 0.01 %ID/g
  tissue uptake at 2 h: 0.026 ± 0.002 %ID/g
[8]; cortex, 60 min, iv, rats (Table III), read-out: Regional distribution, cortex
  tissue uptake at 1 h: 0.061 ± 0.002 %ID/g
[8]; [15]
  tissue uptake at 2 min: 0.87 ± 0.18 %ID/g
  tissue uptake at 0.5 h: 0.23 ± 0.007 %ID/g
  tissue uptake at 2 h: 0.04 ± 0.003 %ID/g
[8]; hippocampus, 60 min, iv, rats (Table III), read-out: Regional distribution, hippocampus
  tissue uptake at 1 h: 0.127 ± 0.009 %ID/g
[8]; [16]
  tissue uptake at 2 min: 0.67 ± 0.1 %ID/g
  tissue uptake at 0.5 h: 0.14 ± 0.04 %ID/g
  tissue uptake at 2 h: 0.03 ± 0.0002 %ID/g
[8]; hypothalamus, 60 min, iv, rats (Table III), read-out: Regional distribution, hypothalamus
  tissue uptake at 1 h: 0.051 ± 0.004 %ID/g
[8]; [17]
  tissue uptake at 2 min: 0.76 ± 0.12 %ID/g
  tissue uptake at 0.5 h: 0.09 ± 0.0001 %ID/g
  tissue uptake at 2 h: 0.021 ± 0.0007 %ID/g
[8]; striatum, 60 min, iv, rats (Table III), read-out: Regional distribution, striatum
  tissue uptake at 1 h: 0.046 ± 0.004 %ID/g
